Tested on: TTR
Experiment: In vitro on-target activity, primary mouse hepatocytes, transfection, RT-qPCR (TTR siRNAs)
Type: cell-based
Details: for On-target TX: 10 nM, log2 transformed, relative to the parent
Method: Cell culture and transfections: Primary Mouse Hepatocytes (Thermo Fisher Scientific/Gibco) were transfected by adding 4.9 μL of Opti-MEM plus 0.1 μL of Lipofectamine RNAiMax per well (Invitrogen, cat #13778-150) to 5 μL of siRNA duplexes per well into a 384-well plate and incubated at room temperature for 15 minutes. 40 μL of Dulbecco's Modified Eagle Medium (Hep3b) or William's Medium (PMH) containing ˜5 ×10^3 cells were then added to the siRNA mixture. Cells were incubated for 24 hours at 37° C. and then processed for RNA purification. Experiments were performed at 10 nM and 0.1 nM doses of siRNA.
Total RNA isolation using DYNABEADS mRNA Isolation Kit: RNA was isolated using an automated protocol on a BioTek-EL406 platform using DYNABEADs (Invitrogen, cat #61012). Briefly, 70 μL of Lysis/Binding Buffer and 10 μL of lysis buffer containing 3 μL of magnetic beads were added to each well. Plates were incubated on an electromagnetic shaker for 10 minutes at room temperature and then magnetic beads were captured and the supernatant was removed. Bead-bound RNA was then washed 2 times with 150 μL Wash Buffer A and once with Wash Buffer B. Beads were then washed with 150 μL Elution Buffer, re-captured and supernatant removed.
cDNA synthesis using ABI High capacity cDNA reverse transcription kit (Applied Biosystems, cat #4368813): 12 μL of a master mix containing 1.2 μL 10× Buffer, 0.48 μL 25× dNTPs, 1.2 μL 10× Random primers, 0.6 μL Reverse Transcriptase, 0.6 μL RNase inhibitor and 7.92 μL of H2O per reaction was added to RNA isolated above. Plates were sealed, mixed, and incubated on an electromagnetic shaker for 10 minutes at room temperature, followed by 2 h 37° C.
Real time PCR: 2 μL of cDNA were added to a master mix containing 2 μL water, 0.5 μL of either an appropriate GAPDH TaqMan VIC Probe or the target probe and 5 μL Lightcycler 480 probe master mix (Roche, cat #04887301001) per well in a 384 well plate (Roche, cat #04887301001). Real time PCR was done in a LightCycler480 Real Time PCR system (Roche). Each duplex was tested in quadruplicate and data were normalized to cells transfected with a non-targeting control siRNA. To calculate relative fold change, real time data were analyzed using the ΔΔCt method and normalized to assays performed with cells transfected with a non-targeting control siRNA.
RT qPCR for Ttr mRNA quantification:_Primary mouse hepatocytes (PMH) were cultured in Williams E Medium with 10% fetal bovine serum. Transfection of cells using RNAiMAX reagent was done as per the manufacturer's recommended protocol. Thus, cells were thawed immediately prior to transfection and then plated onto 384-well plates with a seed density of ˜5000 cells/well. Pre-incubated lipid/siRNA complex (0.1 μL RNAiMax, siRNA, in 5 μL Opti-MEM for 15 min) was added to a 384-well collagen-coated plate (BioCoat; Corning) and cells were incubated for 20 h at 37° C. in an atmosphere of 5% CO2. Eight 6-fold serial dilutions ranging from 10 to 0.036 nM were used to perform dose response experiments. Media was removed before washing and lysing the cells. Using Dynabeads mRNA isolation kit according to manufacturer's protocol, RNA was extracted and subsequently reverse-transcribed with the ABI high capacity cDNA reverse transcription kit. Quantification was done by real-time PCR, whereby the cDNA (2 μL) was added to a master mix that contained 0.5 μL mouse Gapdh TaqMan Probe, 0.5 μL Ttr TaqMan probes, and 5 μL Lightcycler 480 probe master mix per well in a 384-well 50 plate. Real-time PCR was accomplished in an ABI 7900HT RT-PCR system using the ΔΔCt (RQ) assay. Each duplex and concentration was tested in four biological replicates. To calculate relative fold change, real time data were analyzed using the ΔΔCt method and normalized to assays performed with cells transfected with 10 nM nonspecific siRNA. IC50 values were calculated using a 4-parameter fit model using XLFit.

[1] = TTR-3, antisense strand modified at position 7, primary mouse hepatocytes
[2] = TTR-4, modification at antisense position 7, primary mouse hepatocytes
[3] = antisense Position 5, Seq 3 (TTR)
[4] = antisense Position 7, Seq 3 (TTR)
[5] = antisense Position 7, Seq 4 (TTR)
[6] = TTR-3, antisense strand modified at position 5, primary mouse hepatocytes

Q: Which results are given for 2′-(R)-Me-UNA [Mod 7 (R)]?
A: IC50 [1]: 18.6 pM; IC50 [2]: 27.7 pM; On-target TX [3]: 0.50; On-target TX [4]: 0.15; On-target TX [5]: −0.99

Q: With 2′-(S)-Me-UNA [Mod 7 (S)] as the substance, how does the IC50 [6] read?
A: 2.54 pM

Q: And the IC50 [1]?
A: 23.5 pM

Q: What about the IC50 [2] of the same substance?
A: 48.6 pM

Q: And the “On-target TX” value [3]?
A: 0.43

Q: What about the “On-target TX” value [4] of the same substance?
A: 0.72

Q: What about the “On-target TX” value [5] of the same substance?
A: −0.79

Q: What does the source list for 3′-(R)-Me-UNA [Mod 6 (R)]?
A: IC50 [6]: 1.57 pM; IC50 [1]: 34.8 pM; IC50 [2]: 35.8 pM; On-target TX [3]: −0.28; On-target TX [4]: 0.67; On-target TX [5]: −0.98

Q: With 3′-(S)-Me-UNA [Mod 6 (S)] as the substance, how does the IC50 [6] read?
A: 3.16 pM

Q: What about the IC50 [1] of the same substance?
A: 32.2 pM

Q: And the IC50 [2]?
A: 23.9 pM

Q: What about the “On-target TX” value [3] of the same substance?
A: 0.18

Q: What about the “On-target TX” value [4] of the same substance?
A: 0.06

Q: What about the “On-target TX” value [5] of the same substance?
A: −0.31

Q: For 5′-(R)-Me-UNA [Mod 5 (R)], which IC50 [6] is on record?
A: 1.47 pM

Q: And the IC50 [1]?
A: 13.8 pM

Q: And the IC50 [2]?
A: 89.8 pM

Q: What about the “On-target TX” value [3] of the same substance?
A: 0.45

Q: What about the “On-target TX” value [4] of the same substance?
A: 0.50

Q: And the “On-target TX” value [5]?
A: −1.26

Q: What does the source list for 5′-(S)-Me-UNA [Mod 5 (S)]?
A: IC50 [6]: 1.1 pM; IC50 [1]: 15 pM; IC50 [2]: 42.1 pM; On-target TX [3]: −0.03; On-target TX [4]: −0.04; On-target TX [5]: −0.97

Reference: patent US20250207131A1, “MODIFIED RNA AGENTS WITH REDUCED OFF-TARGET EFFECT” (Alnylam Pharmaceuticals, Inc., priority 2018, published 2025)
